Measurements taken from patent US20230085307A1, “PYRIDAZINONE COMPOUND AND HERBICIDE” (NISSAN CHEMICAL CORPORATION, priority 2019, published 2023).

What was measured:
lambsquarters [1] = test: Test Example 4: herbicidal effect by soil treatment (Table 19, symbol O); type: in vivo, lambsquarters (Chenopodium album); details: amount of applied herbicide 320 g/ha
Summary of the method: (§1)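 Three weeks of greenhouse growth at 25° C. to 30° C. followed a uniform surface spray of water-diluted emulsion at a predetermined herbicide amount. Seeds had been sown beforehand under about 1.5 cm of sterilized diluvial soil. Grading followed criteria set out in an earlier test.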

windgrass [2] = test: Test Example 5: herbicidal effect by foliage application, plastic box (Table 20, symbol L); type: in vivo, windgrass (Apera spica-venti)
Summary of the method: (§2)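 Plants sown in sterilized diluvial soil and grown 14 days in a greenhouse at 25° C to 30° C, then sprayed on the foliage with the compound's emulsion diluted in water to a predetermined herbicide amount. Injury to weeds and crops scored three weeks after application on a visual rating scale.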

chickweed [3] = test: Test Example 4: herbicidal effect by soil treatment (Table 19, symbol P); type: in vivo, common chickweed (Stellaria media); details: amount of applied herbicide 320 g/ha
Summary of the method: as §1

blackgrass [4] = test: Test Example 5: herbicidal effect by foliage application, plastic box (Table 20, symbol J); type: in vivo, blackgrass (Alopecurus myosuroides)
Summary of the method: as §2

barnyard grass [5] = test: Test Example 3: herbicidal effect by foliage application, Wagner pot (Table 18, symbol H); type: in vivo, barnyard grass (Echinochloa crus-galli); details: 320 g/ha
Summary of the method: (§3)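 Plants were sown in alluvial soil held under 0.1–0.5 cm standing water and grown 14 days in a greenhouse at 25–30 °C. An emulsifiable formulation, water-diluted to the set dose, was then sprayed onto the foliage, and effects were scored three weeks later using previously defined criteria.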

southern crabgrass [6] = test: Test Example 5: herbicidal effect by foliage application, plastic box (Table 20, symbol F); type: in vivo, southern crabgrass (Digitaria ciliaris)
Summary of the method: as §2

barnyard grass [7] = test: Test Example 4: herbicidal effect by soil treatment (Table 19, symbol H); type: in vivo, barnyard grass (Echinochloa crus-galli); details: amount of applied herbicide 320 g/ha
Summary of the method: as §1

wild oat [8] = test: Test Example 4: herbicidal effect by soil treatment (Table 19, symbol I); type: in vivo, wild oat (Avena fatua); details: amount of applied herbicide 320 g/ha
Summary of the method: as §1

Italian ryegrass [9] = test: Test Example 4: herbicidal effect by soil treatment (Table 19, symbol K); type: in vivo, Italian ryegrass (Lolium multiflorum); details: amount of applied herbicide 320 g/ha
Summary of the method: as §1

wild oat [10] = test: Test Example 5: herbicidal effect by foliage application, plastic box (Table 20, symbol I); type: in vivo, wild oat (Avena fatua)
Summary of the method: as §2

false cleavers = test: Test Example 5: herbicidal effect by foliage application, plastic box (Table 20, symbol Q); type: in vivo, false cleavers (Galium spurium)
Summary of the method: as §2

persian speedwell [11] = test: Test Example 4: herbicidal effect by soil treatment (Table 19, symbol R); type: in vivo, Persian speedwell (Veronica persica); details: amount of applied herbicide 320 g/ha
Summary of the method: as §1

windgrass [12] = test: Test Example 4: herbicidal effect by soil treatment (Table 19, symbol L); type: in vivo, windgrass (Apera spica-venti); details: amount of applied herbicide 320 g/ha
Summary of the method: as §1

chickweed [13] = test: Test Example 5: herbicidal effect by foliage application, plastic box (Table 20, symbol P); type: in vivo, common chickweed (Stellaria media); details: amount of applied herbicide 320 g/ha; foliage application after 14-day growth; evaluated three weeks after application
Summary of the method: as §2

southern crabgrass [14] = test: Test Example 4: herbicidal effect by soil treatment (Table 19, symbol F); type: in vivo, southern crabgrass (Digitaria ciliaris); details: amount of applied herbicide 320 g/ha
Summary of the method: as §1

green foxtail [15] = test: Test Example 4: herbicidal effect by soil treatment (Table 19, symbol G); type: in vivo, green foxtail (Setaria viridis); details: amount of applied herbicide 320 g/ha
Summary of the method: as §1

rice flat sedge = test: Test Example 3: herbicidal effect by foliage application, Wagner pot (Table 18, symbol E); type: in vivo, rice flat sedge (Cyperus iria); details: 320 g/ha
Summary of the method: as §3

blackgrass [16] = test: Test Example 4: herbicidal effect by soil treatment (Table 19, symbol J); type: in vivo, blackgrass (Alopecurus myosuroides); details: amount of applied herbicide 320 g/ha
Summary of the method: as §1

velvetleaf [17] = test: Test Example 5: herbicidal effect by foliage application, plastic box (Table 20, symbol M); type: in vivo, velvetleaf (Abutilon theophrasti)
Summary of the method: as §2

lambsquarters [18] = test: Test Example 5: herbicidal effect by foliage application, plastic box (Table 20, symbol O); type: in vivo, lambsquarters (Chenopodium album); details: amount of applied herbicide 320 g/ha; foliage application after 14-day growth; evaluated three weeks after application
Summary of the method: as §2

redroot pigweed [19] = test: Test Example 4: herbicidal effect by soil treatment (Table 19, symbol N); type: in vivo, redroot pigweed (Amaranthus retroflexus); details: amount of applied herbicide 320 g/ha
Summary of the method: as §1

redroot pigweed [20] = test: Test Example 5: herbicidal effect by foliage application, plastic box (Table 20, symbol N); type: in vivo, redroot pigweed (Amaranthus retroflexus); details: amount of applied herbicide 320 g/ha; foliage application after 14-day growth; evaluated three weeks after application
Summary of the method: as §2

persian speedwell [21] = test: Test Example 5: herbicidal effect by foliage application, plastic box (Table 20, symbol R); type: in vivo, Persian speedwell (Veronica persica)
Summary of the method: as §2

Italian ryegrass [22] = test: Test Example 5: herbicidal effect by foliage application, plastic box (Table 20, symbol K); type: in vivo, Italian ryegrass (Lolium multiflorum)
Summary of the method: as §2

green foxtail [23] = test: Test Example 5: herbicidal effect by foliage application, plastic box (Table 20, symbol G); type: in vivo, green foxtail (Setaria viridis)
Summary of the method: as §2

velvetleaf [24] = test: Test Example 4: herbicidal effect by soil treatment (Table 19, symbol M); type: in vivo, velvetleaf (Abutilon theophrasti); details: amount of applied herbicide 320 g/ha
Summary of the method: as §1

Chinese sprangletop = test: Test Example 3: herbicidal effect by foliage application, Wagner pot (Table 18, symbol D); type: in vivo, chinese sprangletop (Leptochloa chinensis); details: 320 g/ha
Summary of the method: as §3

barnyard grass [25] = test: Test Example 5: herbicidal effect by foliage application, plastic box (Table 20, symbol H); type: in vivo, barnyard grass (Echinochloa crus-galli)
Summary of the method: as §2

late watergrass = test: Test Example 1: herbicidal activity, application before weed generation under submerged conditions (Table 16, symbol A); type: in vivo, late watergrass (Echinochloa oryzicola); details: amount of applied herbicide 320 g/ha
Summary of the method: (§4)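 Emulsion formulation, water-diluted to set dose, was put onto the flooded surface (4 cm depth, alluvial soil) the same day weeds were sown and 2.5-leaf rice transplanted. After 3 weeks at 25-30 °C under glass, each species was rated 0 (≤5% kill) to 5 (≥90% kill).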

oval-leafed pondweed = test: Test Example 1: herbicidal activity, application before weed generation under submerged conditions (Table 16, symbol C); type: in vivo, oval-leafed pondweed (Monochoria vaginalis); details: amount of applied herbicide 320 g/ha
Summary of the method: as §4

Japanese bulrush = test: Test Example 1: herbicidal activity, application before weed generation under submerged conditions (Table 16, symbol B); type: in vivo, Japanese bulrush (Schoenoplectus juncoides); details: amount of applied herbicide 320 g/ha
Summary of the method: as §4

[26] = amount of applied herbicide 320 g/ha, foliage application after 14-day growth, evaluated three weeks after application
[27] = foliage application, 320 g/ha, three weeks after application

SMILES: COc1ccc(-c2sc3cc(F)c(F)cc3c2-c2c(O)c(C)nn(C)c2=O)cc1 [5-014]
- O: lambsquarters, herbicidal effect grade (lambsquarters [1]): 5 (Herbicidal rate of 90% or more (almost completely withered))
- Herbicidal effect by foliage application, L: windgrass (windgrass [2]; [26]): 0 (Herbicidal rate of 5% or less (almost no effect))
- P: chickweed, herbicidal effect grade (chickweed [3]): 3 (Herbicidal rate of 40% or more and less than 70%)
- Herbicidal effect by foliage application, J: blackgrass (blackgrass [4]; [26]): 0 (Herbicidal rate of 5% or less (almost no effect))
- herbicidal effect on barnyard grass (H) (barnyard grass [5]): 4 (Herbicidal rate of 70% or more and less than 90%)
- Herbicidal effect by foliage application, F: southern crabgrass (southern crabgrass [6]; [26]): 3 (Herbicidal rate of 40% or more and less than 70%)
- H: barnyard grass, herbicidal effect grade (barnyard grass [7]): 2 (Herbicidal rate of 20% or more and less than 40%)
- I: wild oat, herbicidal effect grade (wild oat [8]): 0 (Herbicidal rate of 5% or less (almost no effect))
- K: Italian ryegrass, herbicidal effect grade (Italian ryegrass [9]): 0 (Herbicidal rate of 5% or less (almost no effect))
- Herbicidal effect by foliage application, I: wild oat (wild oat [10]; [26]): 0 (Herbicidal rate of 5% or less (almost no effect))
- Herbicidal effect by foliage application, Q: false cleavers (false cleavers; [26]): 4 (Herbicidal rate of 70% or more and less than 90%)
- R: persian speedwell, herbicidal effect grade (persian speedwell [11]): 5 (Herbicidal rate of 90% or more (almost completely withered))
- L: windgrass, herbicidal effect grade (windgrass [12]): 0 (Herbicidal rate of 5% or less (almost no effect))
- Herbicidal effect by foliage application, P: chickweed (chickweed [13]): 5 (Herbicidal rate of 90% or more (almost completely withered))
- F: southern crabgrass, herbicidal effect grade (southern crabgrass [14]): 0 (Herbicidal rate of 5% or less (almost no effect))
- G: green foxtail, herbicidal effect grade (green foxtail [15]): 1 (Herbicidal rate of 5% or more and less than 20%)
- herbicidal effect on rice flat sedge (E) (rice flat sedge): 5 (Herbicidal rate of 90% or more (almost completely withered))
- J: blackgrass, herbicidal effect grade (blackgrass [16]): 0 (Herbicidal rate of 5% or less (almost no effect))
- Herbicidal effect by foliage application, M: velvetleaf (velvetleaf [17]; [26]): 5 (Herbicidal rate of 90% or more (almost completely withered))
- Herbicidal effect by foliage application, O: lambsquarters (lambsquarters [18]): 5 (Herbicidal rate of 90% or more (almost completely withered))
- N: redroot pigweed, herbicidal effect grade (redroot pigweed [19]): 5 (Herbicidal rate of 90% or more (almost completely withered))
- Herbicidal effect by foliage application, N: redroot pigweed (redroot pigweed [20]): 5 (Herbicidal rate of 90% or more (almost completely withered))
- Herbicidal effect by foliage application, R: persian speedwell (persian speedwell [21]; [26]): 5 (Herbicidal rate of 90% or more (almost completely withered))
- Herbicidal effect by foliage application, K: Italian ryegrass (Italian ryegrass [22]; [26]): 4 (Herbicidal rate of 70% or more and less than 90%)
- Herbicidal effect by foliage application, G: green foxtail (green foxtail [23]; [26]): 2 (Herbicidal rate of 20% or more and less than 40%)
- M: velvetleaf, herbicidal effect grade (velvetleaf [24]): 4 (Herbicidal rate of 70% or more and less than 90%)
- herbicidal effect on Chinese sprangletop (D) (Chinese sprangletop): 0 (Herbicidal rate of 5% or less (almost no effect))
- Herbicidal effect by foliage application, H: barnyard grass (barnyard grass [25]; [26]): 2 (Herbicidal rate of 20% or more and less than 40%)

SMILES: COc1cc2sc(-c3ccccc3)c(-c3c(O)c(C)nn(C)c3=O)c2cc1OC [5-055]
- Herbicidal effect, A: late watergrass (late watergrass): 2 (Herbicidal rate of 20% or more and less than 40%)
- herbicidal effect on windgrass (L) (windgrass [2]; [27]): 0 (Herbicidal rate of 5% or less (almost no effect))
- herbicidal effect on blackgrass (J) (blackgrass [4]; [27]): 0 (Herbicidal rate of 5% or less (almost no effect))
- herbicidal effect on barnyard grass (H) (barnyard grass [5]): 1 (Herbicidal rate of 5% or more and less than 20%)
- herbicidal effect on southern crabgrass (F) (southern crabgrass [6]; [27]): 0 (Herbicidal rate of 5% or less (almost no effect))
- herbicidal effect on wild oat (I) (wild oat [10]; [27]): 0 (Herbicidal rate of 5% or less (almost no effect))
- herbicidal effect on false cleavers (Q) (false cleavers; [27]): 0 (Herbicidal rate of 5% or less (almost no effect))
- herbicidal effect on rice flat sedge (E) (rice flat sedge): 3 (Herbicidal rate of 40% or more and less than 70%)
- herbicidal effect on velvetleaf (M) (velvetleaf [17]; [27]): 2 (Herbicidal rate of 20% or more and less than 40%)
- Herbicidal effect, C: oval-leafed pondweed (oval-leafed pondweed): 0 (Herbicidal rate of 5% or less (almost no effect))
- herbicidal effect on persian speedwell (R) (persian speedwell [21]; [27]): 4 (Herbicidal rate of 70% or more and less than 90%)
- herbicidal effect on Italian ryegrass (K) (Italian ryegrass [22]; [27]): 4 (Herbicidal rate of 70% or more and less than 90%)
- herbicidal effect on green foxtail (G) (green foxtail [23]; [27]): 0 (Herbicidal rate of 5% or less (almost no effect))
- herbicidal effect on Chinese sprangletop (D) (Chinese sprangletop): 0 (Herbicidal rate of 5% or less (almost no effect))
- herbicidal effect on barnyard grass (H) (barnyard grass [25]; [27]): 0 (Herbicidal rate of 5% or less (almost no effect))
- Herbicidal effect, B: Japanese bulrush (Japanese bulrush): 0 (Herbicidal rate of 5% or less (almost no effect))
